{"source": "paper PMC5712521", "about": "“Dendrogenin A drives LXR to trigger lethal autophagy in cancers” (Nature Communications, 2017)", "key": {"KG1 cells": {"tested_on": "KG1 cells", "experiment": "qRT-PCR of Nur77 and NOR1", "format": "cell-based, human", "details": "KG1, 24 h; 5 µM DDA, 2 µM TO, 2 µM GW, 10 µM 22(R)HC", "procedure": "(§1) Total RNA was extracted from tumor cells or MEFs using an RNA Extraction kit (Qiagen) or Trizol (Invitrogen), respectively, and was quantified with NanoDrop. Complementary DNA (cDNA) synthesis was performed with 1 μg RNA iScript Reverse Transcriptase (Bio-Rad). 25 ng cDNA was amplified using SyBR Supermix (Bio-Rad). RNA expression of the different genes of interest (Supplementary Tables 1, 2) were determined using the ΔΔCT method, where the difference in the threshold cycle (ΔCT) values of the target gene and the housekeeping gene for each sample was normalized to the ΔCT value of the untreated sample.\n(§2) Supplementary Fig. 6. […]\n(§3) D ata are expressed relative to the control (solvent vehic le). D ata from b, f, g, h, j, p, q ar e the m eans ± S.E.M. of 3 independent experiments performed in triplicate (*P<0.05, **P<0.01, ***P<0.001, t test). Images are representative of 3 independent experim ents."}, "HL60 cells": {"tested_on": "HL60 cells", "experiment": "qRT-PCR of Nur77 and NOR1", "format": "cell-based, human", "details": "HL60, 24 h; 5 µM DDA, 2 µM TO, 2 µM GW, 10 µM 22(R)HC", "procedure": "as §1, §2, §3"}, "B16F10 cells [1]": {"tested_on": "B16F10 cells", "experiment": "RT-qPCR of LXR-responsive genes", "format": "cell-based, mouse", "details": "8 h, 2.5 µM DDA, 10 µM 22(R)HC, 1 µM GW, 100 nM TO, vs vehicle", "procedure": "as §1\n(§4) Supplementary Fig. 4. a R egulat ion of LXR-responsive genes b y D DA and other k nown LXR\n(§5) ligands in B16F10 and SKMEL- 28 cells transfected with s iRN A targeting LXRβ ( siLXRβ) or\n(§6) with contro l siRN A scram ble (siSC). Cells were treated for 8 h with either solvent vehicle, 2.5\n(§7) µM DD A, 10 µM 22(R) hydrox ycholesterol (22(R)HC), 1 µM GW 3965 (GW ) or 100 nM\n(§8) T O901317 (T O). […]"}, "SKMEL-28 cells [2]": {"tested_on": "SKMEL-28 cells", "experiment": "Sterol analysis by GC/MS", "format": "cell-based, human", "details": "SKMEL-28, 24 h; 10 µM 22(R)HC, 1 µM GW, 100 nM TO; GC/MS", "procedure": "(§9) Sterols in cell homogenates were extracted with a solvent mixture containing chloroform/methanol 2/1 (v/v) spiked with epicoprostanol as the internal standard. Lipids were partitioned in chloroform after the addition of saline and saponified by methanolic potassium hydroxide (0.5 N, 60 °C, 15 min). The fatty acids released were methylated with BF3-methanol (12%, 60 °C, 15 min) to not interfere with the chromatography of sterols. The sterols were re-extracted in hexane and silylated, as described previously. The trimethylsilylether derivatives of the sterols were separated by gas chromatography (GC) (Hewlett–Packard 6890 series) in a medium polarity capillary column RTX-65, (65% diphenyl 35% dimethyl polysiloxane, length 30 m, diameter 0.32 mm, film thickness 0.25 μm (Restesk, Evry, France)). The mass spectrometer (Agilent 5975 inert XL) in series with the GC was set up for the detection of positive ions. Ions were produced in the electron impact mode at 70 eV. Sterols were identified by the fragmentogram in the scanning mode and quantified by selective monitoring of the specific ions after normalization with the internal standard epicoprostanol and calibration with weighed standards. […]\nQuantification of sterols ac cum ulation in SKMEL- 2 8 c ells either expressing LXRβ (shCT L) or with LXRβ (sh3 or sh4LXR β) k nock ed down after 24 h treatm ent with 2.5 µ M DD A or solvent vehicle. Anal yses were perform ed by GC/MS. f Quantification of sterols accumulated in m elanom a cells after 24 h treatm ent with 10 µM 22(R) HC, 1 µ M GW , 100 nM T O or solvent […]\n(§10) vehicle. […]"}, "SKMEL-28 cells [3]": {"tested_on": "SKMEL-28 cells", "experiment": "RT-qPCR of LXR-responsive genes", "format": "cell-based, human", "details": "8 h, 2.5 µM DDA, 10 µM 22(R)HC, 1 µM GW, 100 nM TO, vs vehicle", "procedure": "as §1, §4, §5, §6, §7, §8"}, "B16F10 cells [4]": {"tested_on": "B16F10 cells", "experiment": "Sterol analysis by GC/MS", "format": "cell-based, mouse", "details": "B16F10, 24 h, 10 µM 22(R)HC, 1 µM GW, 100 nM TO", "procedure": "as §9\nAnal yses were perform ed by GC/MS. f Quantification of sterols accumulated in\nm elanom a cells after 24 h treatm ent with 10 µM 22(R) HC, 1 µ M GW , 100 nM T O or solvent\nas §10"}}, "data": [{"molecule": "CC(C)CC[C@@H](O)[C@@H](C)[C@H]1CC[C@H]2[C@@H]3CC=C4C[C@@H](O)CC[C@]4(C)[C@H]3CC[C@]12C", "note": "[22(R)HC, 22(R)-hydroxycholesterol]", "values": [{"measurement": "NOR1 mRNA levels (Fold over control)", "setting": "KG1 cells", "value": 6.3, "unit": "fold"}, {"measurement": "Nur77 mRNA levels (Fold over control)", "setting": "KG1 cells", "value": 1.1, "unit": "fold"}, {"measurement": "NOR1 mRNA levels (Fold over control)", "setting": "HL60 cells", "value": 0.7, "unit": "fold"}, {"measurement": "Nur77 mRNA levels (Fold over control)", "setting": "HL60 cells", "value": 0.8, "unit": "fold"}, {"measurement": "ABCA1 mRNA", "setting": "B16F10 cells [1]; B16F10, siCT", "value": "12.5±2.5", "unit": "fold"}, {"measurement": "ABCG1 mRNA", "setting": "B16F10 cells [1]; B16F10, siCT", "value": "0.7±0.1", "unit": "fold"}, {"measurement": "ABCG5 mRNA", "setting": "B16F10 cells [1]; B16F10, siCT", "value": "4.2±0.2", "unit": "fold"}, {"measurement": "ABCG8 mRNA", "setting": "B16F10 cells [1]; B16F10, siCT", "value": "1.6±0.2", "unit": "fold"}, {"measurement": "LC3A mRNA", "setting": "B16F10 cells [1]; B16F10, siCT", "value": "1.3±0.1", "unit": "fold"}, {"measurement": "LC3B mRNA", "setting": "B16F10 cells [1]; B16F10, siCT", "value": "1.1±0.2", "unit": "fold"}, {"measurement": "LDLR mRNA", "setting": "B16F10 cells [1]; B16F10, siCT", "value": "0.1±0.1", "unit": "fold"}, {"measurement": "NOR1 mRNA", "setting": "B16F10 cells [1]; B16F10, siCT", "value": "2.2±0.3", "unit": "fold"}, {"measurement": "Nur77 mRNA", "setting": "B16F10 cells [1]; B16F10, siCT", "value": "1.4±0.1", "unit": "fold"}, {"measurement": "SCD1 mRNA", "setting": "B16F10 cells [1]; B16F10, siCT", "value": "1.1±0.2", "unit": "fold"}, {"measurement": "SREBP1 mRNA", "setting": "B16F10 cells [1]; B16F10, siCT", "value": "2.2±0.2", "unit": "fold"}, {"measurement": "SULT2b1b mRNA", "setting": "B16F10 cells [1]; B16F10, siCT", "value": "1.5±0.3", "unit": "fold"}, {"measurement": "ABCA1 mRNA", "setting": "B16F10 cells [1]; B16F10, siLXRβ", "value": "4.2 ±0.9", "unit": "fold"}, {"measurement": "ABCG1 mRNA", "setting": "B16F10 cells [1]; B16F10, siLXRβ", "value": "1.1±0.1", "unit": "fold"}, {"measurement": "ABCG5 mRNA", "setting": "B16F10 cells [1]; B16F10, siLXRβ", "value": "2.0±0.5", "unit": "fold"}, {"measurement": "ABCG8 mRNA", "setting": "B16F10 cells [1]; B16F10, siLXRβ", "value": "1.0±0.1", "unit": "fold"}, {"measurement": "LC3A mRNA", "setting": "B16F10 cells [1]; B16F10, siLXRβ", "value": "1.0±0.3", "unit": "fold"}, {"measurement": "LC3B mRNA", "setting": "B16F10 cells [1]; B16F10, siLXRβ", "value": "1.0±0.1", "unit": "fold"}, {"measurement": "LDLR mRNA", "setting": "B16F10 cells [1]; B16F10, siLXRβ", "value": "1.1±0.1", "unit": "fold"}, {"measurement": "NOR1 mRNA", "setting": "B16F10 cells [1]; B16F10, siLXRβ", "value": "0.9±0.2", "unit": "fold"}, {"measurement": "Nur77 mRNA", "setting": "B16F10 cells [1]; B16F10, siLXRβ", "value": "0.8±0.2", "unit": "fold"}, {"measurement": "SCD1 mRNA", "setting": "B16F10 cells [1]; B16F10, siLXRβ", "value": "1.2±0.3", "unit": "fold"}, {"measurement": "SREBP1 mRNA", "setting": "B16F10 cells [1]; B16F10, siLXRβ", "value": "1.2±0.1", "unit": "fold"}, {"measurement": "SULT2b1b mRNA", "setting": "B16F10 cells [1]; B16F10, siLXRβ", "value": "1.1±0.2", "unit": "fold"}, {"measurement": "Sterol amount/total sterol: 8-DHC", "setting": "SKMEL-28 cells [2]", "value": "0.05± 0.03"}, {"measurement": "Sterol amount/total sterol: zymostenol", "setting": "SKMEL-28 cells [2]", "value": "0.37± 0.07"}, {"measurement": "ABCA1 mRNA", "setting": "SKMEL-28 cells [3]; SKMEL-28, siCT", "value": "6.5±0.1", "unit": "fold"}, {"measurement": "ABCG1 mRNA", "setting": "SKMEL-28 cells [3]; SKMEL-28, siCT", "value": "2.1±0.2", "unit": "fold"}, {"measurement": "ABCG5 mRNA", "setting": "SKMEL-28 cells [3]; SKMEL-28, siCT", "value": "4.5±0.1", "unit": "fold"}, {"measurement": "ABCG8 mRNA", "setting": "SKMEL-28 cells [3]; SKMEL-28, siCT", "value": "0.4±0.1", "unit": "fold"}, {"measurement": "LC3A mRNA", "setting": "SKMEL-28 cells [3]; SKMEL-28, siCT", "value": "1.0±0.2", "unit": "fold"}, {"measurement": "LC3B mRNA", "setting": "SKMEL-28 cells [3]; SKMEL-28, siCT", "value": "0.9±0.2", "unit": "fold"}, {"measurement": "LDLR mRNA", "setting": "SKMEL-28 cells [3]; SKMEL-28, siCT", "value": "0.4±0.1", "unit": "fold"}, {"measurement": "NOR1 mRNA", "setting": "SKMEL-28 cells [3]; SKMEL-28, siCT", "value": "1.8±0.1", "unit": "fold"}, {"measurement": "Nur77 mRNA", "setting": "SKMEL-28 cells [3]; SKMEL-28, siCT", "value": "1.6±0.2", "unit": "fold"}, {"measurement": "SCD1 mRNA", "setting": "SKMEL-28 cells [3]; SKMEL-28, siCT", "value": "1.0±0.2", "unit": "fold"}, {"measurement": "SREBP1 mRNA", "setting": "SKMEL-28 cells [3]; SKMEL-28, siCT", "value": "2.3±0.2", "unit": "fold"}, {"measurement": "SULT2B1b mRNA", "setting": "SKMEL-28 cells [3]; SKMEL-28, siCT", "value": "1.9±0.1", "unit": "fold"}, {"measurement": "ABCA1 mRNA", "setting": "SKMEL-28 cells [3]; SKMEL-28, siLXRβ", "value": "1.5±0.1", "unit": "fold"}, {"measurement": "ABCG1 mRNA", "setting": "SKMEL-28 cells [3]; SKMEL-28, siLXRβ", "value": "0.2±0.1", "unit": "fold"}, {"measurement": "ABCG5 mRNA", "setting": "SKMEL-28 cells [3]; SKMEL-28, siLXRβ", "value": "1.7±0.3", "unit": "fold"}, {"measurement": "ABCG8 mRNA", "setting": "SKMEL-28 cells [3]; SKMEL-28, siLXRβ", "value": "0.7±0.2", "unit": "fold"}, {"measurement": "LC3A mRNA", "setting": "SKMEL-28 cells [3]; SKMEL-28, siLXRβ", "value": "1.0±0.2", "unit": "fold"}, {"measurement": "LC3B mRNA", "setting": "SKMEL-28 cells [3]; SKMEL-28, siLXRβ", "value": "1.0±0.1", "unit": "fold"}, {"measurement": "LDLR mRNA", "setting": "SKMEL-28 cells [3]; SKMEL-28, siLXRβ", "value": "1.1±0.1", "unit": "fold"}, {"measurement": "NOR1 mRNA", "setting": "SKMEL-28 cells [3]; SKMEL-28, siLXRβ", "value": "1.2±0.2", "unit": "fold"}, {"measurement": "Nur77 mRNA", "setting": "SKMEL-28 cells [3]; SKMEL-28, siLXRβ", "value": "0.8±0.2", "unit": "fold"}, {"measurement": "SCD1 mRNA", "setting": "SKMEL-28 cells [3]; SKMEL-28, siLXRβ", "value": "0.8±0.1", "unit": "fold"}, {"measurement": "SREBP1 mRNA", "setting": "SKMEL-28 cells [3]; SKMEL-28, siLXRβ", "value": "0.9±0.3", "unit": "fold"}, {"measurement": "SULT2B1b mRNA", "setting": "SKMEL-28 cells [3]; SKMEL-28, siLXRβ", "value": "1.0±0.2", "unit": "fold"}, {"measurement": "Sterol amount/total sterol: 8-DHC", "setting": "B16F10 cells [4]", "value": "0.08± 0.006"}, {"measurement": "Sterol amount/total sterol: zymostenol", "setting": "B16F10 cells [4]", "value": "0.24± 0.08"}]}]}
